Results reported in patent US20060024392A1, “Compositions and methods for enhancing the effectiveness of a chemotherapeutic agent” (priority 2004, published 2006).

Tested on: HT29 colon cancer cells
Test: Sulforhodamine B (SRB) cell growth assay in HT29 colon cancer cells
Type: cell-based
Method: HT-29, a cell line derived from colorectal adenocarcinoma (ATCC, HTB 38), grows in McCoy's 5A medium (Biowhittaker, Inc. Walkersville, Md.). NCM460, a cell line derived from a normal human colon (InCell Corp. San Antonio, Tex.), grows in M3 Base media (InCell Corp. San Antonio, Tex.).
Both cell lines are kept at 37° C. and 5% CO2 atmosphere. Both media are supplemented with 10% fetal bovine serum (FBS, Biowhittaker, Inc. Walkersville, Md.).
Cells are fixed in situ by the gentle addition of 50 μl of cold 50% (w/v) TCA (final concentration, 10% TCA) and incubated for 60 minutes at 4° C. The supernatant is discarded, and the plates are washed five times with tap water and air dried. Sulforhodamine B (SRB) solution (100 μl) at 0.4% (w/v) in 1% acetic acid is added to each well, and plates are incubated for 10 minutes at room temperature. After staining, unbound dye is removed by washing five times with 1% acetic acid and the plates are air dried. Bound stain is subsequently solubilized with 100 μl 10 mM trizma base for 5 minutes, and the absorbance at wavelength of 490 nm was spectrophotometrically measured using a microplate reader Elx800 (Bio-Tek instruments, Inc.).
Cells were seeded in 96-well cluster tissue culture plates (Costar), containing 100 μl complete growth medium per well at densities of 5,000 cells per well. Incubated at 37° C. in a humidified tissue culture incubator. After 24 Hour, 100 μl complete medium containing 5 half-log dilutions of the 5FU from 2*10^−4 to 2*10^−6 M was added into each well (final concentrations are from 10^−4 to 10^−6 M). Six replicates were used for each concentration. Media containing 0.125% DMSO was used as control. After 48 hours of incubation with 5FU in medium, cell proliferation was assessed using the SRB assay.
Percentage growth (Growth%) is calculated as: [(Ti−Tz)/(C−Tz)]×100 [absorbance measurements at time zero (Tz), control growth (C), and test growth in the presence of drug at the different concentration levels (Ti)].
Similar to the method used in testing GI50 of 5FU: HT29 was plated at 5000 cells per well. […] After 48 hour treatment, cell growth was assessed using SRB assay.
The protocol was the same as described above, except cells were exposed to 5FU at concentration ranging from 10^−4 to 10^−6 M with chokeberry ARE at concentration of 1.56, 5, 15.6, 50 μg monomeric anthocyanin/ml growth media.
The protocol was the similar to Experiment 1: Cells were exposed to half-log diluted SAC at concentration ranging from 3.2 to 1000 μM for 48 hour. Media containing 0.5% filtered water was used as control.
This experiment was to determine whether the antioxidant, SAC would enhance the effect of 5FU in HT29 cells. The protocol was the same as Experiment 3, except cells were exposed to 5FU at concentration ranging from 10^−4 to 10^−6 M with SAC at concentration of 10, 100, 1000 μM.

[1] = 5FU 1.0E−4 M, 48 h, experiment 1
[2] = 5FU 1.0E−4 M, 48 h, experiment 2
[3] = 5FU 1.0E−4 M, 48 h, experiment 3
[4] = 5FU 1.0E−4 M, 48 h, experiment 4
[5] = 5FU 1.0E−4.5 M, 48 h, experiment 1
[6] = 5FU 1.0E−4.5 M, 48 h, experiment 2
[7] = 5FU 1.0E−4.5 M, 48 h, experiment 3
[8] = 5FU 1.0E−4.5 M, 48 h, experiment 4
[9] = 5FU 1.0E−5 M, 48 h, experiment 1
[10] = 5FU 1.0E−5 M, 48 h, experiment 2
[11] = 5FU 1.0E−5 M, 48 h, experiment 3
[12] = 5FU 1.0E−5 M, 48 h, experiment 4
[13] = 5FU 1.0E−5.5 M, 48 h, experiment 1
[14] = 5FU 1.0E−5.5 M, 48 h, experiment 2
[15] = 5FU 1.0E−5.5 M, 48 h, experiment 3
[16] = 5FU 1.0E−5.5 M, 48 h, experiment 4
[17] = 5FU 1.0E−6 M, 48 h, experiment 1
[18] = 5FU 1.0E−6 M, 48 h, experiment 2
[19] = 5FU 1.0E−6 M, 48 h, experiment 3
[20] = 5FU 1.0E−6 M, 48 h, experiment 4
[21] = Table 2: 5FU at 1.0E-4.368 M alone, 48 h
[22] = Table 6 (1): 5FU 1.00E−04 M, SAC 0
[23] = Table 6 (1): 5FU 1.00E−05 M, SAC 0
[24] = Table 6 (1): 5FU 1.00E−06 M, SAC 0
[25] = Table 6 (2): 5FU 1.00E−04 M, SAC 0
[26] = Table 6 (2): 5FU 1.00E−05 M, SAC 0
[27] = Table 6 (2): 5FU 1.00E−06 M, SAC 0

## O=c1[nH]cc(F)c(=O)[nH]1 [5FU, 5-fluorouracil]
[1]
  Growth %: 48.88%
  OD: 0.30
[2]
  Growth %: 34.83%
  OD: 0.25
[3]
  Growth %: 37.16%
  OD: 0.26
[4]
  Growth %: 42.91%
  OD: 0.25
[5]
  Growth %: 54.63%
  OD: 0.32
[6]
  Growth %: 44.48%
  OD: 0.27
[7]
  Growth %: 43.58%
  OD: 0.27
[8]
  Growth %: 53.85%
  OD: 0.27
[9]
  Growth %: 60.38%
  OD: 0.33
[10]
  Growth %: 57.93%
  OD: 0.31
[11]
  Growth %: 56.76%
  OD: 0.31
[12]
  Growth %: 70.85%
  OD: 0.32
[13]
  Growth %: 82.11%
  OD: 0.40
[14]
  Growth %: 77.24%
  OD: 0.37
[15]
  Growth %: 76.69%
  OD: 0.37
[16]
  Growth %: 87.85%
  OD: 0.36
[17]
  Growth %: 94.25%
  OD: 0.44
[18]
  Growth %: 94.83%
  OD: 0.42
[19]
  Growth %: 88.51%
  OD: 0.41
[20]
  Growth %: 96.36%
  OD: 0.38
5FU alone at GI50 concentration (FIG. 1)
  growth inhibition: 65%
[21]
  Growth %: 35.02%
  OD: 0.22
Table 3: 5FU 1.0E−4 M, ARE 0
  Growth %: 29.77%
  OD: 0.20
Table 3: 5FU 1.0E−5 M, ARE 0
  Growth %: 49.30%
  OD: 0.24
Table 3: 5FU 1.0E−6 M, ARE 0
  Growth %: 82.33%
  OD: 0.31
[22]
  Growth %: 27.44%
  OD: 0.175
[23]
  Growth %: 52.09%
  OD: 0.228
[24]
  Growth %: 91.63%
  OD: 0.313
[25]
  Growth %: 26.16%
  OD: 0.178
[26]
  Growth %: 43.46%
  OD: 0.219
[27]
  Growth %: 79.32%
  OD: 0.304
Highest concentration of 5FU alone
  growth of cells, % of control: 30 % of control
Intermediate concentration of 5FU alone
  growth of cells, % of control: 50 % of control
Lowest concentration of 5FU (10^−6 M) alone
  growth of cells, % of control: 80 % of control
